Reference: patent US8148373B2, “Compounds” (AstraZeneca AB, priority 2008, dated 2012)
Where a name gives a salt, the structure may show the parent alone.

Assays:
[1] = biological target: T1, Adrenergic β2 (H292 cells) (Homo sapiens, UniProt P07550); experiment: Assay for Adrenergic β2 Mediated cAMP Production (concentration response, AlphaScreen cAMP detection); format: cell-based; conditions: for EC50: cAMP production, 60 minutes at room temperature, 300 μM rolipram, read-out: β2 pEC50 (converted); for β2 Intrinsic activity: fraction relative to the maximum activity determined for formoterol
T1 construct: endogenous in cells; host or cells: H292 cells
T1 sequence (P07550 whole entry): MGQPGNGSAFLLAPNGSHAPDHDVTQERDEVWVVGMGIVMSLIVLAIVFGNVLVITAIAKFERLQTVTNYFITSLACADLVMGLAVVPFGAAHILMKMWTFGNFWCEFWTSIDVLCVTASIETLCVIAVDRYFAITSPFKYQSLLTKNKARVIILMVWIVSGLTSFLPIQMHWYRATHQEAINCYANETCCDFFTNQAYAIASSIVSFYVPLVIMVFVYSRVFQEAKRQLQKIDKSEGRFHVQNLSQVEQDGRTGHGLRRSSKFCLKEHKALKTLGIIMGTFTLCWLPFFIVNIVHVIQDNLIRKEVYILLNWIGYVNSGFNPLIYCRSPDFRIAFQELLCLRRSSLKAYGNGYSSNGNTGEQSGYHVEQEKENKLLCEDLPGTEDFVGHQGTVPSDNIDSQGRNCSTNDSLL
Method: Assay for Adrenergic β2 Mediated Camp Production
H292 cells are grown in 225 cm2 flasks incubator at 37° C., 5% CO2 in RPMI medium containing 10% (v/v) FBS (foetal bovine serum) and 2 mM L-glutamine.
Adherent H292 cells are removed from tissue culture flasks by treatment with Accutase™ cell detachment solution for 15 minutes. Flasks are incubated for 15 minutes in a humidified incubator at 37° C., 5% CO2. Detached cells are re-suspended in RPMI media (containing 10% (v/v) FBS and 2 mM L-glutamine) at 0.1×10^6 cells per mL. 10000 cells in 100 μL are added to each well of a tissue-culture-treated 96-well plate and the cells incubated overnight in a humidified incubator at 37° C., 5% CO2. The culture media is removed and cells are washed twice with 100 μL assay buffer and replaced with 50 μL assay buffer (HBSS solution containing 10 mM HEPES pH7.4 and 5 mM glucose). Cells are rested at room temperature for 20 minutes after which time 25 μL of rolipram (1.2 mM made up in assay buffer containing 2.4% (v/v) dimethylsulphoxide) is added. Cells are incubated with rolipram for 10 minutes after which time test compounds are added and the cells are incubated for 60 minutes at room temperature. The final rolipram concentration in the assay is 300 μM and final vehicle concentration is 1% (v/v) dimethylsulphoxide. The reaction is stopped by removing supernatants, washing once with 100 μL assay buffer and replacing with 50 μL lysis buffer. The cell monolayer is frozen at −80° C. for 30 minutes (or overnight).
AlphaScreen™ cAMP Detection
The concentration of cAMP (cyclic adenosine monophosphate) in the cell lysate is determined using AlphaScreen™ methodology. The frozen cell plate is thawed for 20 minutes on a plate shaker then 10 μL of the cell lysate is transferred to a 96-well white plate. 40 μL of mixed AlphaScreen™ detection beads pre-incubated with biotinylated cAMP, is added to each well and the plate incubated at room temperature for 3 hours in the dark. The AlphaScreen™ signal is measured using an EnVision spectrophotometer (Perkin-Elmer Inc.) with the recommended manufacturer's settings. cAMP concentrations are determined by reference to a calibration curve determined in the same experiment using standard cAMP concentrations. Concentration response curves for agonists are constructed and data is fitted to a four parameter logistic equation to determine both the pEC50 and Intrinsic Activity. Intrinsic Activity is expressed as a fraction relative to the maximum activity determined for formoterol in each experiment.

[2] = biological target: T2, human muscarinic acetylcholine M3 receptor (M3-ACh) (Homo sapiens, UniProt P20309); experiment: Muscarinic 3 Receptor Binding Assay ([3H]NMS competition, SPA); conditions: [3H]NMS 0.1 nM, CHO-K1 cell membranes, 16 hours at room temperature; read-out: M3 pIC50 (converted)
T2 construct: expressed in transfected cells; host or cells: CHO-K1 (Chinese Hamster Ovary) cell membranes
T2 sequence (P20309 whole entry): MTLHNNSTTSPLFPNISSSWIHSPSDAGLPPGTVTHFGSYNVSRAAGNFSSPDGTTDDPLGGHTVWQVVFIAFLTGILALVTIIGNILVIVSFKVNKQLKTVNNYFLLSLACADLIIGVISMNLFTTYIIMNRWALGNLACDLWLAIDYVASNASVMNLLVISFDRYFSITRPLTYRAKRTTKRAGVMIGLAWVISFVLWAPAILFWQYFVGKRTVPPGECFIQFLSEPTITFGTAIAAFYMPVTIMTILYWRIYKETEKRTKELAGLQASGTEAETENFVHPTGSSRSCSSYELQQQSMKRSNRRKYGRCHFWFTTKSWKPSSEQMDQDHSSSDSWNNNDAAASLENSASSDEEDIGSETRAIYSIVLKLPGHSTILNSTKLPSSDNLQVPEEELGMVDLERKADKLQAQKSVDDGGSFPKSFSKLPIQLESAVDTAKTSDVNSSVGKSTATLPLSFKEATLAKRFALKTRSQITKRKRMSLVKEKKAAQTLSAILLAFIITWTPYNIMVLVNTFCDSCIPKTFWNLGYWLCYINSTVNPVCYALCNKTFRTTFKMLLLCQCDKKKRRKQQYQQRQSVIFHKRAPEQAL
Method: Muscarinic 3 Receptor Binding Assay
The affinity (pIC50) of compounds binding to the M3 receptor is determined by competition binding of [^3H]N-methyl scopolamine (NMS) to CHO-K1 (Chinese Hamster Ovary) cell membranes expressing the human muscarinic acetylcholine M3 receptor (M3-ACh) in a scintillation proximity assay (SPA) format.
SPA beads are precoated with membranes and then incubated at 2 mg of beads per well with serial dilutions of compounds of the invention, [^3H]NMS at 0.1 nM, quarter Kd (experimentally determined dissociation constant) and assay buffer (20 mM HEPES pH 7.4 containing 5 mM MgCl2). The assay is conducted in a final volume of 200 μL, in the presence of 1% (v/v) dimethyl sulphoxide (DMSO). Total binding of [^3H]NMS is determined in the absence of competing compound and non-specific binding of [^3H]NMS is determined in the presence of 1 μM atropine. The plates are incubated for 16 hours at room temperature and then read on Wallac Microbeta™ using a normalised ^3H protocol. The pIC50, defined as the negative logarithm of the molar concentration of compound required for 50% reduction in specific [^3H]-NMS binding, is determined.

SMILES | EC50 [1] | β2 Intrinsic activity [1] | IC50 [2]
Cc1ccc(C(=O)N2CCOC3(CCN(Cc4cccc(CCNC[C@H](O)c5ccc(O)c6[nH]c(=O)sc56)c4)CC3)C2)s1 [Example 15, (R)-4-Hydroxy-7-(1-hydroxy-2-(3-((4-(5-methylthiophene-2-carbonyl)-1-oxa-4,9-diazaspiro[5.5]undecan-9-yl)methyl)phenethylamino)ethyl)benzo[d]thiazol-2(3H)-one trifluoroacetate] | 2.51 nM | 0.9 | 1.26 nM
Cc1nc(C(=O)N2CCOC3(CCN(Cc4ccc(CCNC[C@H](O)c5ccc(O)c6[nH]c(=O)sc56)cc4)CC3)C2)cs1 [Example 16, (R)-4-Hydroxy-7-(1-hydroxy-2-(4-((4-(2-methylthiazole-4-carbonyl)-1-oxa-4,9-diazaspiro[5.5]undecan-9-yl)methyl)phenethylamino)ethyl)benzo[d]thiazol-2(3H)-one ditrifluoroacetate] | 15.8 nM | 0.9 | 7.94 nM
Cc1nc(C(=O)N2CCOC3(CCN(Cc4ccc(CCNC[C@H](O)c5ccc(O)c6[nH]c(=O)ccc56)cc4)CC3)C2)cs1 [Example 17, (R)-8-Hydroxy-5-(1-hydroxy-2-(4-((4-(2-methylthiazole-4-carbonyl)-1-oxa-4,9-diazaspiro[5.5]undecan-9-yl)methyl)phenethylamino)ethyl)quinolin-2(1H)-one ditrifluoroacetate] | 50.1 nM | 0.5 | 50.1 nM
Cc1nc(C(=O)N2CCOC3(CCN(CCOc4cc(C)c(CNC[C@H](O)c5ccc(O)c6[nH]c(=O)sc56)cc4C)CC3)C2)cs1 [Example 18, (R)-7-(2-(2,5-Dimethyl-4-(2-(4-(2-methylthiazole-4-carbonyl)-1-oxa-4,9-diazaspiro[5.5]undecan-9-yl)ethoxy)benzylamino)-1-hydroxyethyl)-4-hydroxybenzo[d]thiazol-2(3H)-one ditrifluoroacetate] | 63.1 nM | 1 | 2.51 nM
Cc1nc(C(=O)N2CCOC3(CCN(Cc4cc(F)cc(CCNC[C@H](O)c5ccc(O)c6[nH]c(=O)sc56)c4)CC3)C2)cs1 [Example 19, (R)-7-(2-(3-Fluoro-5-((4-(2-methylthiazole-4-carbonyl)-1-oxa-4,9-diazaspiro[5.5]undecan-9-yl)methyl)phenethylamino)-1-hydroxyethyl)-4-hydroxybenzo[d]thiazol-2(3H)-one ditrifluoroacetate] | 3.16 nM | 0.9 | 1.58 nM
O=C(c1csc(C(F)(F)F)n1)N1CCOC2(CCN(Cc3cccc(CCNC[C@H](O)c4ccc(O)c5[nH]c(=O)sc45)c3)CC2)C1 [Example 26, (R)-4-Hydroxy-7-(1-hydroxy-2-(3-((4-(2-(trifluoromethyl)thiazole-4-carbonyl)-1-oxa-4,9-diazaspiro[5.5]undecan-9-yl)methyl)phenethylamino)ethyl)benzo[d]thiazol-2(3H)-one ditrifluoroacetate] | 12.6 nM | 0.8 | 0.631 nM

Second part, the molecule after the results:

EC50 [1] | β2 Intrinsic activity [1] | IC50 [2] | SMILES
200 nM | 0.8 | 31.6 nM | Cc1ccc(C(=O)N2CCOC3(CCN(CCc4cccc(CNC[C@H](O)c5ccc(O)c6[nH]c(=O)sc56)c4)CC3)C2)s1 [Example 20, (R)-4-Hydroxy-7-(1-hydroxy-2-(3-(2-(4-(5-methylthiophene-2-carbonyl)-1-oxa-4,9-diazaspiro[5.5]undecan-9-yl)ethyl)benzylamino)ethyl)benzo[d]thiazol-2(3H)-one ditrifluoroacetate]
200 nM | 0.5 | 1 nM | Cc1nc(C(=O)N2CCOC3(CCN(CCc4ccc(CNC[C@H](O)c5ccc(O)c6[nH]c(=O)sc56)s4)CC3)C2)cs1 [Example 21, (R)-4-Hydroxy-7-(1-hydroxy-2-((5-(2-(4-(2-methylthiazole-4-carbonyl)-1-oxa-4,9-diazaspiro[5.5]undecan-9-yl)ethyl)thiophen-2-yl)methylamino)ethyl)benzo[d]thiazol-2(3H)-one ditrifluoroacetate]
10 nM | 0.9 | 0.126 nM | CC(C)c1nc(C(=O)N2CCOC3(CCN(Cc4cccc(CCNC[C@H](O)c5ccc(O)c6[nH]c(=O)sc56)c4)CC3)C2)cs1 [Example 22, (R)-4-Hydroxy-7-O-hydroxy-2-(3-((4-(2-isopropylthiazole-4-carbonyl)-1-oxa-4,9-diazaspiro[5.5]undecan-9-yl)methyl)phenethylamino)ethyl)benzo[d]thiazol-2(3H)-one ditrifluoroacetate]
15.8 nM | 0.9 | 0.251 nM | CC(C)c1nc(C(=O)N2CCOC3(CCN(Cc4cccc(CCNC[C@H](O)c5ccc(O)c6[nH]c(=O)ccc56)c4)CC3)C2)cs1 [Example 23, (R)-8-Hydroxy-5-(1-hydroxy-2-(3-((4-(2-isopropylthiazole-4-carbonyl)-1-oxa-4,9-diazaspiro[5.5]undecan-9-yl)methyl)phenethylamino)ethyl)quinolin-2(1H)-one ditrifluoroacetate]
5.01 nM | 1 | 25.1 nM | Cc1nc(C(=O)N2CCOC3(CCN(CCOc4cccc(CCNC[C@H](O)c5ccc(O)c6[nH]c(=O)sc56)c4)CC3)C2)cs1 [Example 24, (R)-4-Hydroxy-7-(1-hydroxy-2-(3-(2-(4-(2-methylthiazole-4-carbonyl)-1-oxa-4,9-diazaspiro[5.5]undecan-9-yl)ethoxy)phenethylamino)ethyl)benzo[d]thiazol-2(3H)-one ditrifluoroacetate]
15.8 nM | 0.8 | 1 nM | O=C(c1csc(C(F)(F)F)n1)N1CCOC2(CCN(Cc3cccc(CCNC[C@H](O)c4ccc(O)c5[nH]c(=O)ccc45)c3)CC2)C1 [Example 25, (R)-8-Hydroxy-5-(1-hydroxy-2-(3-((4-(2-(trifluoromethyl)thiazole-4-carbonyl)-1-oxa-4,9-diazaspiro[5.5]undecan-9-yl)methyl)phenethylamino)ethyl)quinolin-2(1H)-one ditrifluoroacetate]
1.26 nM | 1 | 2.51 nM | Cc1ccc(C(=O)N2CCOC3(CCN(Cc4cc(CCNC[C@H](O)c5ccc(O)c6[nH]c(=O)sc56)cs4)CC3)C2)s1 [Example 27, (R)-4-Hydroxy-7-(1-hydroxy-2-(2-(5-((4-(5-methylthiophene-2-carbonyl)-1-oxa-4,9-diazaspiro[5.5]undecan-9-yl)methyl)thiophen-3-yl)ethylamino)ethyl)benzo[d]thiazol-2(3H)-one ditrifluoroacetate]
10 nM | 1 | 2.51 nM | Cc1nc(C(=O)N2CCOC3(CCN(Cc4cc(F)cc(CCNC[C@H](O)c5ccc(O)c6[nH]c(=O)ccc56)c4)CC3)C2)cs1 [Example 28, (R)-5-(2-(3-Fluoro-5-((4-(2-methylthiazole-4-carbonyl)-1-oxa-4,9-diazaspiro[5.5]undecan-9-yl)methyl)phenethylamino)-1-hydroxyethyl)-8-hydroxyquinolin-2(1H)-one ditrifluoroacetate]
